# Test results taken from US11261186B2, “Biaryl derivative as GPR120 agonist” (LG CHEM, LTD., priority 2014, dated 2022).
# Target: T1, hGPR120 (Homo sapiens, UniProt Q5NUL3)
# T1 construct: expressed in transfected cells; host or cells: CHO-K1
# T1 sequence (Q5NUL3 1-361): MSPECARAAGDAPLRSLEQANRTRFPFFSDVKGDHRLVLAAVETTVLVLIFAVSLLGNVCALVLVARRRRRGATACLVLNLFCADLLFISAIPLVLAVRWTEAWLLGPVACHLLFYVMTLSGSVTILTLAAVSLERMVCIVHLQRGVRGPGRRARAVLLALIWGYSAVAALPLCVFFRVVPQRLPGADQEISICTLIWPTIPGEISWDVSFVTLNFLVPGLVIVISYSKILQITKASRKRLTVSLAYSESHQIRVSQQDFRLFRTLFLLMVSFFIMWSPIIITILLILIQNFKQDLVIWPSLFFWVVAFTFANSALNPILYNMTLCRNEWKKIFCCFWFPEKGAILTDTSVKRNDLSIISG
# Assay: Measurement of Activity of GPR120 Agonist (Cell-Based Assay), Calcium 5 dye fluorescence
# Settings: CHO-K1 cells expressing Ga16 and hGPR120
# How it was run: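 Agonist-evoked calcium signal, expressed as percent relative to DMSO-only wells, read at 485/525 nm after serial-dilution addition (0.5% DMSO final). Cells were hGPR120/Gα16 CHO-K1, seeded 18 h earlier and dye-loaded for 1 h at 37°C.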
row,Structure (SMILES),EC50 [nM]
1,"O=C(O)CC1CCN(c2c(F)cc(-c3cncc(OC4CCCC4)n3)cc2F)C1 (stereo not drawn) [Example 497, 2-{1-[2,6-difluoro-4-(6-cyclopentoxy-pyrazin-2-yl)phenyl]pyrrolidin-3-yl}acetic acid]",200 to 2000
2,"CN(CCCC(=O)O)c1c(F)cc(-c2cccc(OC3CCC3)n2)cc1F [Example 205, 4-{[4-(6-cyclobutoxy-pyridin-2-yl)-2,6-difluoro-phenyl]-methyl-amino}-butyric acid]",< 200
3,"O=C(O)CCCCc1c(F)cc(-c2cccnc2OC2CCC2)cc1F [Example 251, 5-[4-(2-cyclobutoxy-pyridin-3-yl)-2,6-difluoro-phenyl]-pentanoic acid]",< 200
4,"O=C(O)C[C@@H]1CCN(c2c(F)cc(-c3cccnc3OC3CCCC3)cc2F)C1 [Example 137, 2-[(3S)-1-[4-[2-(cyclopentoxy)-3-pyridyl]-2,6-difluoro-phenyl]pyrrolidin-3-yl]acetic acid]",< 200
5,"COc1ccc(-c2cc(F)c(OCCCC(=O)O)c(F)c2)nc1OC1CCC1 [Example 455, 4-[4-[6-(cyclobutoxy)-5-methoxy-2-pyridyl]-2,6-difluoro-phenoxy]butanoic acid]",< 200
6,"Cc1ncc(-c2cc(F)c(N3CCC(CC(=O)O)CC3)c(F)c2)nc1OC1CCC1 [Example 361, 2-[1-[4-[6-(cyclobutoxy)-5-methyl-pyrazin-2-yl]-2,6-difluoro-phenyl]-4-piperidyl]acetic acid]",200 to 2000
7,"O=C(O)CCCCc1ccc(-c2cccnc2OC2CCC2)cc1F [Example 245, 5-[4-(2-cyclobutoxy-pyridin-3-yl)-2-fluoro-phenyl]-pentanoic acid]",< 200
8,"O=C(O)CC1CCN(c2c(F)cc(-n3ncc4ccc(OC5CCC5)cc43)cc2F)CC1 [Example 487, 2-[1-[4-[6-(cyclobutoxy)indazol-1-yl]-2,6-difluoro-phenyl]-4-piperidyl]acetic acid]",200 to 2000
9,"O=C(O)CC1CN(c2c(F)cc(-c3cccc(OC4CCCC4)n3)cc2F)C1 [Example 116, 2-[1-[4-[6-(cyclopentoxy)-2-pyridyl]-2,6-difluoro-phenyl]azetidin-3-yl]acetic acid]",< 200
10,"COc1ccc(-c2cc(F)c(N3CCC(CC(=O)O)CC3)c(F)c2)nc1OC1CCC1 [Example 457, 2-[1-[4-[6-(cyclobutoxy)-5-methoxy-2-pyridyl]-2,6-difluoro-phenyl]-4-piperidyl]acetic acid]",200 to 2000
11,"O=C(O)CCCOc1c(F)cc(-n2ncc3ccc(OC4CCC4)cc32)cc1F [Example 482, 4-[4-[6-(cyclobutoxy)indazol-1-yl]-2,6-difluoro-phenoxy]butanoic acid]",< 200
12,"O=C(O)CC1CCN(c2c(F)cc(-c3ncc(F)c(OC4CCC4)n3)cc2F)C1 (stereo not drawn) [Example 592, {1-[4-(4-cyclobutoxy-5-fluoro-pyrimidin-2-yl)-2,6-difluoro-phenyl]-pyrrolidin-3-yl}-acetic acid]",200 to 2000
13,"CC(CCCC(=O)O)c1ccc(-c2cccnc2SC2CCC2)cc1 (stereo not drawn) [Example 39, 5-[4-(2-cyclobutylsulfanyl-3-pyridyl)phenyl]hexanoic acid]",< 200
14,"O=C(O)CC1CCN(c2c(F)cc(-c3cncc(OC4CCC4)n3)cc2F)C1 (stereo not drawn) [Example 578, {1-[4-(6-cyclobutoxy-pyrazin-2-yl)-2,6-difluoro-phenyl]-pyrrolidin-3-yll}-acetic acid]",< 200
15,"CCCCOc1cccc(-c2cc(F)c(N3CCC(CC(=O)O)CC3)c(F)c2)n1 [Example 324, 2-[1-[4-(6-butoxy-2-pyridyl)-2,6-difluoro-phenyl]-4-piperidyl]acetic acid]",200 to 2000
16,"CC(Cc1cc(O)no1)c1c(F)cc(-c2cccnc2OC2CCCC2)cc1F (stereo not drawn) [Example 88, 5-[2-[4-[2-(cyclopentoxy)-3-pyridyl]-2,6-difluoro-phenyl]propyl]isoxazol-3-ol]",< 200
17,"c1cnc(SC2CCC2)c(-c2ccc(CCCc3nnn[nH]3)cc2)c1 [Example 26, 2-cyclobutylsulfanyl-3-{4-[3-(1H-tetrazol-5-yl)propyl]phenyl}pyridine]",200 to 2000
18,"O=C(O)CCC1CCc2cc(-c3cccc(OC4CCC4)n3)ccc2O1 (stereo not drawn) [Example 444, 3-[6-[6-(cyclobutoxy)-2-pyridyl]chroman-2-yl]propanoic acid]",< 200

# Results, then the molecule that gave them:
row,EC50 [nM],Structure (SMILES)
1,< 200,"O=C(O)CCC1CCc2cc(-c3cccc(OCC4CC4)n3)ccc2O1 (stereo not drawn) [Example 445, 3-[6-[6-(cyclopropylmethoxy)-2-pyridyl]chroman-2-yl]propanoic acid]"
2,< 200,"CC(CCCC(=O)O)c1c(F)cc(-c2cccc(SC3CCCC3)n2)cc1F (stereo not drawn) [Example 54, 5-[4-(6-cyclopentylsulfanyl-2-pyridyl)-2,6-difluoro-phenyl]hexanoic acid]"
3,< 200,"O=C(O)CC1CCN(c2c(F)cc(-c3nccc(OCC4CC4)n3)cc2F)C1 (stereo not drawn) [Example 581, {1-[4-(4-cyclopropylmethoxy-pyrimidin-2-yl)-2,6-difluoro-phenyl]-pyrrolidin-3-yl}-acetic acid]"
4,2000 to 20000,"COCc1ccc2c(cnn2-c2cc(F)c(OCCCC(=O)O)c(F)c2)c1 [Example 480, 4-[2,6-difluoro-4-[5-(methoxymethyl)indazol-1-yl]phenoxy]butanoic acid]"
5,200 to 2000,"CC(C)OCc1cccc(-c2cc(F)c(N3CCC(CC(=O)O)CC3)c(F)c2)c1 [Example 302, 2-[1-[2,6-difluoro-4-[3-(isopropoxymethyl)phenyl]phenyl]-4-piperidyl]acetic acid]"
6,2000 to 20000,"CC(C)Sc1ncccc1-c1cc(F)c(N2CCCC(CC(=O)O)C2)c(F)c1 (stereo not drawn) [Example 108, 2-[1-[2,6-difluoro-4-(2-isopropylsulfanyl-3-pyridyl)phenyl]-3-piperidyl]acetic acid]"
7,< 200,"O=C(O)CC1CCN(c2c(F)cc(-c3nccc(Oc4ccccc4)n3)cc2F)CC1 [Example 510, 2-[1-[4-[4-phenoxy-pyrimidin-2-yl]-2,6-difluoro-phenyl]-4-piperidyl]acetic acid]"
8,200 to 2000,"COc1ccc(-c2cc(F)c(C3CC3CCC(=O)O)c(F)c2)c2c1OC(C)(C)C2 (stereo not drawn) [Example 442, 3-[2-[2,6-difluoro-4-(7-methoxy-2,2-dimethyl-3H-benzofuran-4-yl)phenyl]cyclopropyl]propanoic acid]"
9,< 200,"CC(C)Sc1ncccc1-c1cc(F)c(N2CC[C@H](CC(=O)O)C2)c(F)c1 [Example 134, 2-[(3R)-1-[2,6-difluoro-4-(2-isopropylsulfanyl-3-pyridyl)phenyl]pyrrolidin-3-yl]acetic acid]"
10,< 200,"CC(C)Sc1cccc(-c2cc(F)c(N3CCC(CC(=O)O)C3)c(F)c2)n1 (stereo not drawn) [Example 125, 2-[1-[2,6-difluoro-4-(6-isopropylsulfanyl-2-pyridyl)phenyl]pyrrolidin-3-yl]acetic acid]"
11,< 200,"CCCOc1cncc(-c2cc(F)c(N3CCC(CC(=O)O)CC3)c(F)c2)n1 [Example 341, 2-[1-[2,6-difluoro-4-(6-propoxypyrazin-2-yl)phenyl]-4-piperidyl]acetic acid]"
12,< 200,"CC(CCCC(=O)O)c1c(F)cc(-c2cccnc2SC2CCC2)cc1F (stereo not drawn) [Example 48, 5-[4-(2-cyclobutylsulfanyl-3-pyridyl)-2,6-difluoro-phenyl]hexanoic acid]"
13,< 200,"COc1ccc(-c2cc(F)c(N(C)CCCC(=O)O)c(F)c2)c2c1OC(C)(C)C2 [Example 259, 4-{[2,6-difluoro-4-(7-methoxy-2,2-dimethyl-2,3-dihydro-benzofuran-4-yl)-phenyl]-methyl-amino}-butyric acid]"
14,< 200,"CC(CCCC(=O)O)c1c(F)cc(-c2ccccc2NC2CCCC2)cc1F (racemic) [Example 47, 5-(2′-cyclopentylamino-3,5-difluoro-bisphenyl-4-yl)hexanoic acid]"
15,< 200,"CN(CCCC(=O)O)c1c(F)cc(-c2cccc(SC3CCC3)n2)cc1F [Example 202, 4-{[4-(6-cyclobutylsulfanyl-pyridin-2-yl)-2,6-difluoro-phenyl]-methyl-amino}-butyric acid]"
16,< 200,"CC(C)Sc1ncccc1-c1cc(F)c(N2CCC(CC(=O)O)C2)c(F)c1 (stereo not drawn) [Example 124, 2-[1-[2,6-difluoro-4-(2-isopropylsulfanyl-3-pyridyl)phenyl]pyrrolidin-3-yl]acetic acid]"
17,> 20000,"O=C(O)CC1CCN(c2c(F)cc(-c3ncnc4c3CCC4)cc2F)CC1 [Example 382, 2-[1-[4-(6,7-dihydro-5H-cyclopenta[d]pyrimidin-4-yl)-2,6-difluoro-phenyl]-4-piperidyl]acetic acid]"
18,200 to 2000,"CCOc1cccc(-c2cc(F)c(N3CCC(CC(=O)O)CC3)c(F)c2)n1 [Example 314, 2-[1-[4-(6-ethoxy-2-pyridyl)-2,6-difluoro-phenyl]-4-piperidyl]acetic acid]"
19,< 200,"C[C@H](C/C=C/C(=O)O)c1c(F)cc(-c2cccnc2SC2CCC2)cc1F [Example 228, (E)-(R)-5-[4-(2-cyclobutylsulfanyl-pyridin-3-yl)-2,6-difluoro-phenyl]-hex-2-enoic acid]"
20,< 200,"CC(C)Sc1ncccc1-c1ccc(N(C)CCCC(=O)O)c(F)c1 [Example 212, 4-{[2-fluoro-4-(2-isopropylsulfanyl-pyridin-3-yl)-phenyl]-methyl-amino}-butyric acid]"
21,< 200,"O=C(O)CC1CCN(c2c(F)cc(-c3ncc(F)c(OCC4CC4)n3)cc2F)CC1 [Example 372, 2-[1-[4-[4-(cyclopropylmethoxy)-5-fluoro-pyrimidin-2-yl]-2,6-difluoro-phenyl]-4-piperidyl]acetic acid]"
